Literature values, collected in patent US8962595B2, “Compositions of small molecule therapeutics” (Nexmed Holdings, Inc., priority 2010, dated 2015).

Details: water

Sol. H2O (reported solubility from the literature): 3000 µg/mL
SMILES: NS(=O)(=O)c1cc2c(cc1Cl)N=CNS2(=O)=O [Chlorothiazide, chlorothiazide]
